Measurements published in US20210363483A1, “METHOD FOR PRODUCING CULTURED CELL, AND METHOD FOR PRODUCING THERAPEUTIC AGENT FOR SPINAL CORD INJURY DISEASE” (REGENESIS SCIENCE CO., LTD., priority 2017, published 2021).

System: GDNF mRNA
Experiment: GDNF mRNA expression by real-time PCR in cultured human skin-derived stem cells
Assay type: cell-based
Description: To find a compound or cytokine to increase the expression of GDNF in cells, following 6 candidate materials were examined: Valproic Acid (VA), Platelet-Derived Growth Factor (PDGF), SAG (or Purmorphamine or rh-Sonic Hedgehog (PeproTech)), Bone Morphogenic Protein 4 (BMP4). These 6 materials were added to 7 wells, which had reached to confluence in Example 1, in the following combinations: (1) Control (not added) (2) VA (1 uM), (3) VA (1 uM)+PDGF (long/ml), (4) VA (1 uM)+SAG (0.3 uM), (5) PDGF (long/ml), (6) SAG (0.3 uM), (7) […] (long/ml). 72 hours after the addition, total RNA was extracted from each well by TRIzol method. Using “ReverTra Ace (trade mark) qPCR RT kit”, a cDNA synthesis kit for PCR, 0.5 ug of each total RNA was added to 10 μL of ReverTra Ace (trade mark) qPCR RT kit to synthesize respective cDNA. […]
PCR was performed by three-step method under the conditions of annealing 60° C./elongation 72° C. and the steps (1) to (2) were repeated for 40 cycles. In the last step, a Melting Curve was analyzed and it was confirmed that no primer dimer was produced. […]

Compound | expression of GDNF mRNA (GDNF mRNA/GAPDH mRNA) compared with control (Purmorphamine 1.5 uM used in place of SAG) | expression of GDNF mRNA (GDNF mRNA/GAPDH mRNA) compared with control (SAG 0.3 uM, 72 hours after addition)
c1ccc2c(Oc3nc(Nc4ccc(N5CCOCC5)cc4)c4ncn(C5CCCCC5)c4n3)cccc2c1 [Purmorphamine, 9-Cyclohexyl-N-[4-(4-morpholinyl)phenyl]-2-(1-naphthalenyloxy)-9H-purin-6-amine] | ~10 times | 
CNC1CCC(N(Cc2cccc(-c3ccncc3)c2)C(=O)c2sc3ccccc3c2Cl)CC1 (centres unmarked) [SAG, N-Methyl-N′-(3-pyridinylbenzyl)-N′-(3-chlorobenzo[b]thiophene-2-carbonyl)-1,4-diaminocyclohexane] |  | more than 10 times
